Literature values in patent US12059317B2, “Multi-phase oral care compositions” (The Procter & Gamble Company, priority 2019, dated 2024).
Where two headings read alike, the source gives them in different places.

Conditions: for Solubility in Water (number of parts by weight per 100 parts by weight of water): hydrophilic bleaching agent particle of the composition, PVP complex value estimated from supplier data sheet on PVP K-30

NC(N)=O.OO [Urea Peroxide, Urea Hydrogen Peroxide Adduct]
Solubility in water (at 20 C, per Safety Data Sheet from supplier): 800 grams per liter
Solubility in water (footnote values from supplier data sheets / Wikipedia): 80 parts per 100 parts of water
Solubility in Water (number of parts by weight per 100 parts by weight of water): 80 parts by weight per 100 parts by weight of water
Solubility in Water (number of parts by weight per 100 parts by weight of water) (listed as urea peroxide): 80 parts by weight per 100 parts
